The subject of this experiment is draining lymph node cells of HLA-DR4 transgenic mice. Nature of the experiment: Murine IFN-γ ELISpot, HLA-DR4 transgenic mice primed with SseB. As to conditions: mouse, in vivo. The source says: Mice transgenic for HLA-DR1 (that is, HLA-DRA1*0101/HLA-DRB1*0101) and HLA-DR4 (that is, HLA-DRA1*0101/HLA-DRB1*0401)[24]–[26] were bred and housed in the Centre for Biological Services at the Hammersmith campus, Imperial College London, UK, in accordance with Home Office regulations and College ethics review. Both transgenic lines are maintained on a C57BL/6 background as homozygotes for knockout of murine MHC Class II H2-Aβ.[27]
HLA-DR1 or HLA-DR4 transgenic mice were primed, by subcutaneous injection into the footpad, with 25 μg of recombinant SseB protein administered as a 1 : 1 emulsion with TiterMax® Gold (CytRx Corporation, Los Angeles, CA). Ten days after priming, popliteal draining lymph nodes were harvested and stimulated, in triplicate, at 2 × 10^5 cells per well with 25 μg of SseB peptide or recombinant protein in pre-coated murine IFN-γ ELISpot plates (2BScientific, Upper Heyford, Oxfordshire, UK). Culture medium was RPMI-1640 containing 2 mM L-glutamine, 50 U/ml penicillin G, 50 μg/ml streptomycin sulphate, 50 μM β-mercaptoethanol and 10% fetal calf serum. Cells were cultured at 37° and in 5% CO2 for 72 hr before assay development using a biotinylated anti-IFN-γ antibody, a horseradish peroxidase detection antibody and TMB substrate (2BScientific). Developed plates were left to dry before spot counting using an AID ELISpot reader (Autoimmun Diagnostika GMBH). Positive epitopes for a given transgenic line were defined as those where more than half of assayed animals gave a greater number of spot-forming cells than 2 SD over the mean of the no protein/peptide control.
Fig 1 Definition of HLA-DR specific T-cell epitopes in DR1 and DR4 transgenic mice. (a) HLA-DR1 (n = 5) and (b) HLA-DR4 (n = 6) mice were footpad primed with ssEB protein in combination with TiterMax® Gold adjuvant. Draining lymph node (DLN) cells were assayed by ELISpot at day 10 for interferon-γ (IFN-γ) T-cell responses to ssEB peptides and protein. A peptide was defined as containing a T-cell epitope for DR1 or DR4 HLA molecules if more than half of the mice assayed gave a greater number of spot-forming cells than 2 SD over the mean of the no peptide/protein control. The 2 SD value for each transgenic line is shown by a dotted line.

Regarding “11: SseB overlapping library peptide, residues 101–120 (EDVIKYMRDNGILIDGMTID) [Peptide 11]”, the “IFN-γ ELISpot recall response / CD4 epitope in HLA-DR4 transgenic mice” value is “CD4 epitopes detected”. To “AVLTQLTGLISKWGEISSMIAQKTYS [Peptide 18, SseB overlapping library peptide, residues 171–196]” belongs “not DR4”.

The record behind these values is PMC4212957, “The serodominant secreted effector protein of Salmonella, SseB, is a strong CD4 antigen containing an immunodominant epitope presented by diverse HLA class II alleles” (Immunology, 2014).
